For one test, the target named is T1, hOX1R (Homo sapiens, UniProt O43613).
T1 construct: expressed in transfected cells
T1 sequence (O43613 1-425): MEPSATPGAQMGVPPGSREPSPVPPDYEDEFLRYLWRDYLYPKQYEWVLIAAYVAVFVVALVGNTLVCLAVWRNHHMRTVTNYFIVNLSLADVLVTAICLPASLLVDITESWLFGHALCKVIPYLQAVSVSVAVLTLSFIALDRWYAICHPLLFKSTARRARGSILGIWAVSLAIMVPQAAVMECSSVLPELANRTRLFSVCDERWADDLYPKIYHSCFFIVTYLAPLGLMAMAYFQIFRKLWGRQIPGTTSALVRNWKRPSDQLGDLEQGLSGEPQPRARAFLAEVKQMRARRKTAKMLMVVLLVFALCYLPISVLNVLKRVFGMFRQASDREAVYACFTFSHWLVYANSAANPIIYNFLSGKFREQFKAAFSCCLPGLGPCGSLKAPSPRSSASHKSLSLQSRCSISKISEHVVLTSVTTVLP
Put plainly: In vitro test of OX1R: calcium signal change in cells detected with FLIPR. Format: cell-based. As to conditions: HEK293-OX1 stable cell strain, Fluo-4 AM calcium signal, Orexin A at EC70. The procedure:
(§1) The inhibitive effect of a compound on OX1 and OX2 GPCR receptor was evaluated by detecting calcium signal change in cells with FLIPR, and IC50 value of compound was used as an indication.
(§2) Experimental Materials: • Cell line: HEK293-OX1 and OX2 stable cell strain • HEK293-OX1 cell culture media (DMEM, Invitrogen#11960-044, 10% serum Gibco#10099141, L-Glutamine 1×, Gibco#25030, sodium pyruvate 1×, Gibco #11360, Geneticin 300 μg/ml, Gibco #10131). • HEK293-OX2 cell culture media (DMEM, Invitrogen#11960-044, 10% serum Gibco#10099141, L-Glutamine 1×, Gibco#25030, sodium pyruvate 1×, Gibco #11360, Geneticin 300 μg/ml, Gibco #10131, Blasticin 2 μg/ml, Invitrogen # R21001). • Pancreatic enzyme (Invitrogen, #25200-072) • DPBS (Hyclone, #SH30028.01B) • Fluo-4 AM, Invitrogen# F14202 • F-127, Invitrogen # P3000MP • Probenecid, Sigma # P8761 • 384-well cell plate, Greiner #781946 • 384-well compound plate, Greiner #781280 • CO2 incubator, Thermo#371 • Centrifuge, Eppendorf #5810R • Vi-cell cytometry, Beckman Coulter • POD 810 Plate Assembler Automatic microplate pretreatment system • Labcyte FLIPR, Molecular Device.
(§3) a) cell inoculation (HEK293-OX1 and HEK293-OX2 cells) • 1) The medium trypsin, and DPBS were preheated at 37° C. under water bath. Culture medium of cells was sucked and cells were washed with 10 mL DPBS. • 2) The preheated trypsin was added into the culture bottle which was rotated so that trypsin uniformly covered the bottle. It was placed in an incubator (37° C., 5% CO2) to digest for 1-2 minutes; • 3) Each T150 was suspended with 10-15 mL of culture medium, and centrifuged at 800 rpm for 5 minutes. Cells were resuspended with 10 mL medium, and 1 mL of the cell re-suspension was sucked out and counted with Vi-cell cytometry. • 4) The OX1 cells were diluted with culture medium to 5×10^5 cells/mL, and OX2 cells were diluted to 4×10^5 cells/mL. The diluted cells were added into 384 plate (Greiner. 781946) with multichannel pipettes (50 μL/hole, OX1 cells: 25000 cells/hole; and OX2 cells: 20000 cells/hole). The cell plate was placed in an incubator (37° C., 5% CO2) overnight.
(§4) b) loading of the compound: • 1) DMSO was used to dilute the compound into 20 mM by using 3-fold dilution. 8 gradients in duplicate wells were used. Echo liquid handler was used to add the compound into a compound plate. Then 20 μL buffer was added to ensure that the final DMSO concentration was 0.1%.
(§5) c) FLIPR Experiment: • 1) The cell culture medium in 384-well plate was washed away with a vacuum pump. 30 μL fluorescent dye Fluo4AM was added. […] 8 gradients in duplicate wells were used. Then the DMSO plate was prepared and the DMSO concentration was 0.5%. The cell plate, Orexin A plate, and DMSO plate were placed into FLIPR respectively, and the fluorescence values were read. • 3) EC70 value was calculated based on EC50 value of Orexin A. 5×EC70 solution was prepared and added into a 384-well compound plate with multichannel pipettes. The plate was placed on ice for preservation. • 4) In the FLIPR, the compound plate, 5×EC70 plate, cell plate and FLIPR tips were placed respectively. The program was run and the fluorescence values were read.
(§6) d) Data Analysis: Prism5.0 was used to analysis the data, and the IC50 value of the compound was calculated.

The target of another test is T2, hOX2R (Homo sapiens, UniProt O43614).
T2 construct: expressed in transfected cells
T2 sequence (O43614 1-444): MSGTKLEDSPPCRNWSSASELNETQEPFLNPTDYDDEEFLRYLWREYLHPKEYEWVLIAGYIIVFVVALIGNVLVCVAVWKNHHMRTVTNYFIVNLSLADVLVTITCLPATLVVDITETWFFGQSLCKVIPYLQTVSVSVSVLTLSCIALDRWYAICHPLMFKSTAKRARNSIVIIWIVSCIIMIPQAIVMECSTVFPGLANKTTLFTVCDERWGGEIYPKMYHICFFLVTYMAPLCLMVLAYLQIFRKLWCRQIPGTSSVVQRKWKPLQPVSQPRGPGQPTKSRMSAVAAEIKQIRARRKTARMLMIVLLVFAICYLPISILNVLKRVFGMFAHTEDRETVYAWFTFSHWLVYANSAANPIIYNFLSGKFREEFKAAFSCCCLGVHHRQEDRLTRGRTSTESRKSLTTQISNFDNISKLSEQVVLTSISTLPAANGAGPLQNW
Put plainly: In vitro test of OX2R: calcium signal change in cells detected with FLIPR. Format: cell-based. As to conditions: HEK293-OX2 stable cell strain, Fluo-4 AM calcium signal, Orexin A at EC70. The procedure: as §1, §2, §3, §4, §5, §6

Setting [1] is: read-out: IC50 detected in FLIPR, hOX1R.
Where [2] appears, read: read-out: IC50 detected in FLIPR, hOX2R.

The structures appear in SMILES notation. Like-named read-outs stand apart in the source and are kept apart here.

For orientation: IC50 means the concentration needed to halve the response being measured. Turning to `Cc1ccc(-c2cncnc2)c(C(=O)N2C3CCC2[C@@H](COc2ccc(F)cn2)CC3)c1` (stereo partly drawn) [Example 34], the IC50 turned out to be 2300 nM on hOX1R (IC50 detected in FLIPR, hOX1R) and 2510 nM at hOX2R (IC50 detected in FLIPR, hOX2R).

With `Cc1cccc(C(=O)N2C3CC[C@H]2CC[C@@H]3COc2ccc(F)cn2)c1` [Example 21], the IC50 is 567 nM on hOX1R (setting [1]) and 741 nM at hOX2R (setting [2]).

Turning to `Cc1ccc(-c2ncccn2)c(C(=O)N2C3CCC(COc4ccc(F)cn4)C2CC3)c1` (single isomer, unassigned) [Example 8], the IC50 on hOX1R (setting [1]) was 4260 nM; at hOX2R (setting [2]), 4610 nM.

Regarding `Cc1ccc(-c2ncccn2)c(C(=O)N2C3CCC(C(=O)Nc4ccccc4O)C2CC3)c1` (stereo not drawn) [Example 27], the IC50 at hOX1R (IC50 detected in FLIPR, hOX1R) amounted to 3000 nM; at hOX2R (IC50 detected in FLIPR, hOX2R), 3000 nM.

Turning to `Cc1ccc(-c2ccccn2)c(C(=O)N2C3CC[C@H]2CC[C@@H]3COc2ccc(F)cn2)c1` [Example 11], the figures for the IC50 on hOX1R (setting [1]) and on hOX2R (setting [2]) were 321 nM and 363 nM, respectively.

`Cc1ccc(C)c(C(=O)N2C3CC[C@H]2CC[C@@H]3OCc2ccc(F)cn2)c1` [Example 36]: the 50% inhibitory concentration (IC50) on hOX1R (setting [1]) was found to be 217 nM; on hOX2R (setting [2]), 195 nM.

As to `Cc1ccc(-c2ncccn2)c(C(=O)N2C3CC[C@H]2CC[C@@H]3COc2ccc(F)cc2F)c1` [Example 30], the IC50 is 489 nM on hOX1R (IC50 detected in FLIPR, hOX1R) and 262 nM on hOX2R (IC50 detected in FLIPR, hOX2R).

Turning to `Cc1ccc(-c2ncccn2)c(C(=O)N2C3CC[C@H]2CC[C@@H]3COc2ccc(F)cc2)c1` [Example 29], the results for the IC50 on hOX1R (setting [1]) and at hOX2R (setting [2]) were 68 nM and 121 nM, respectively.

In the case of `Cc1ccc(OCC2CCC3CCC2N3C(=O)c2cc(C)ccc2-c2ncccn2)nc1` (stereo not drawn) [Example 24], the IC50 at hOX1R (IC50 detected in FLIPR, hOX1R) came out at 56 nM; at hOX2R (IC50 detected in FLIPR, hOX2R), 87 nM.

Turning to `O=C(c1cc(Cl)ccc1-c1ncccn1)N1C2CC[C@H]1CC[C@@H]2COc1ccc(F)cn1` [Example 18], the IC50 at hOX1R (IC50 detected in FLIPR, hOX1R) was 127 nM; at hOX2R (IC50 detected in FLIPR, hOX2R), 904 nM.

For `Cc1ccc(-c2nccs2)c(C(=O)N2C3CC[C@H]2CC[C@@H]3OCc2ccc(F)cn2)c1` [Example 37], the IC50 worked out at 20 nM on hOX1R (IC50 detected in FLIPR, hOX1R) and 36 nM at hOX2R (IC50 detected in FLIPR, hOX2R).

Turning to `O=C(c1cc(Cl)ccc1-n1nccn1)N1C2CC[C@H]1CC[C@@H]2COc1ccc(F)cn1` [Example 16], the IC50 on hOX1R (IC50 detected in FLIPR, hOX1R) worked out at 56 nM; at hOX2R (IC50 detected in FLIPR, hOX2R), 440 nM.

`O=C(c1c(F)cccc1-n1nccn1)N1C2CC[C@H]1CC[C@@H]2COc1ccc(F)cn1` [Example 9]: the 50% inhibitory concentration (IC50) at hOX1R (IC50 detected in FLIPR, hOX1R) stood at 24 nM; at hOX2R (IC50 detected in FLIPR, hOX2R) it was 15 nM.

`Cc1cccc(S(=O)(=O)N2C3CC[C@H]2CC[C@@H]3COc2ccc(F)cn2)c1` [Example 22]: the IC50 on hOX1R (IC50 detected in FLIPR, hOX1R) is 2420 nM; at hOX2R (IC50 detected in FLIPR, hOX2R), 1370 nM.

Regarding `O=C(c1cc(F)ccc1-c1ncccn1)N1C2CC[C@H]1CC[C@@H]2COc1ccc(F)cn1` [Example 17], the IC50 on hOX1R (setting [1]) amounted to 43 nM; on hOX2R (setting [2]), 47 nM.

As for `O=C(c1cc(C(F)(F)F)ccc1-c1ncccn1)N1C2CC[C@H]1CC[C@@H]2COc1ccc(F)cn1` [Example 35], the concentration for half-maximal inhibition (IC50) at hOX1R (IC50 detected in FLIPR, hOX1R) was found to be 2070 nM; at hOX2R (IC50 detected in FLIPR, hOX2R), 1420 nM.

In the case of `Cc1ccc(-c2ncccn2)c(C(=O)N2C3CC[C@H](COc4ccc(F)cn4)[C@@H]2CC3)c1` [Example 6], the results for the IC50 on hOX1R (setting [1]) and on hOX2R (setting [2]) were 2550 nM and 4190 nM, respectively.

As to `Cc1ccc(-c2ncccn2)c(C(=O)N2C3CCC(c4nc5ccccc5o4)C2CC3)c1` (stereo not drawn) [Example 28], the IC50 on hOX1R (IC50 detected in FLIPR, hOX1R) is 34 nM; on hOX2R (IC50 detected in FLIPR, hOX2R), 23 nM.

For the molecule `Cc1ccc(-c2ncccn2)c(C(=O)N2C3CC[C@H]2CC[C@@H]3COc2ccncc2)c1` [Example 32], the IC50 at hOX1R (setting [1]) was found to be 7 nM; at hOX2R (setting [2]), 6 nM.

On to `Cc1ccc(-n2nccn2)c(C(=O)N2C3CCC(COc4ccc(F)cn4)C2CC3)c1` (single isomer, unassigned) [Example 4], for which the IC50 amounted to 217 nM at hOX1R (setting [1]) and 195 nM at hOX2R (setting [2]).

As for `O=C(c1ccc(F)cc1-n1nccn1)N1C2CC[C@H]1CC[C@@H]2COc1ccc(F)cn1` [Example 15], the IC50 at hOX1R (IC50 detected in FLIPR, hOX1R) worked out at 37 nM; at hOX2R (IC50 detected in FLIPR, hOX2R), 55 nM.

For the origin of these results see patent publication US10100047B2, “Piperidine derivatives as orexin receptor antagonist” (SHANGHAI HAIYAN PHARMACEUTICAL TECHNOLOGY CO., LTD., priority 2014, dated 2018).
